Measurements taken from ChEMBL document CHEMBL4804286, “3-amino-4-(4-(4 (dimethylcarbamoyl) phenyl)-1,4-diazepan-1-yl) thieno [2,3-b] pyridine-2-carboxamide for use in cancer therapy and formulations comprising the same” (2020).
“And” between values parts separate entries of the source, which are not always exact repeats. Equal values may be shown once. The source made the active and inactive calls. No cut-off for these calls is given here.

How the values were obtained:
[1] = molecular target: Calcium/calmodulin-dependent protein kinase kinase 1 (Homo sapiens) (UniProt Q8N5S9); test: Inhibition of human CAMKK1 assessed as percent of control at 2000 nM by KINOMEscan assay relative to control; design: scale not given: the % may be the effect or the level left
[2] = molecular target: Serine/threonine-protein kinase Chk1 (Homo sapiens) (UniProt O14757); test: Inhibition of human CHEK1 assessed as percent of control at 2000 nM by KINOMEscan assay relative to control; design: scale not given: the % may be the effect or the level left
[3] = molecular target: Macrophage colony-stimulating factor 1 receptor (Homo sapiens) (UniProt P07333); test: Inhibition of human CSF1R assessed as percent of control at 2000 nM by KINOMEscan assay relative to control; design: scale not given: the % may be the effect or the level left
[4] = molecular target: Tyrosine-protein kinase CSK (Homo sapiens) (UniProt P41240); test: Inhibition of human CSK assessed as percent of control at 2000 nM by KINOMEscan assay relative to control; design: scale not given: the % may be the effect or the level left
[5] = molecular target: Casein kinase II subunit alpha' (Homo sapiens) (UniProt P19784); test: Inhibition of human CSNK2A2 assessed as percent of control at 2000 nM by KINOMEscan assay relative to control; design: scale not given: the % may be the effect or the level left
[6] = system: Epidermal growth factor receptor (Homo sapiens), P00533 [L861Q]; test: Inhibition of human EGFR L861Q mutant assessed as percent of control at 2000 nM by KINOMEscan assay relative to control; design: scale not given: the % may be the effect or the level left
[7] = molecular target: Mitogen-activated protein kinase 3 (Homo sapiens) (UniProt P27361); test: Inhibition of human ERK1 assessed as percent of control at 2000 nM by KINOMEscan assay relative to control; design: scale not given: the % may be the effect or the level left
[8] = molecular target: Focal adhesion kinase 1 (Homo sapiens) (UniProt Q05397); test: Inhibition of human FAK assessed as percent of control at 2000 nM by KINOMEscan assay relative to control; design: scale not given: the % may be the effect or the level left
[9] = molecular target: Tyrosine-protein kinase ITK/TSK (Homo sapiens) (UniProt Q08881); test: Inhibition of human ITK assessed as percent of control at 2000 nM by KINOMEscan assay relative to control; design: scale not given: the % may be the effect or the level left
[10] = system: Mast/stem cell growth factor receptor Kit (Homo sapiens), P10721 [V559D,V654A]; test: Inhibition of human KIT V559D/V654A double mutant assessed as percent of control at 2000 nM by KINOMEscan assay relative to control; design: scale not given: the % may be the effect or the level left
[11] = molecular target: Mitogen-activated protein kinase kinase kinase 13 (Homo sapiens) (UniProt O43283); test: Inhibition of human LZK assessed as percent of control at 2000 nM by KINOMEscan assay relative to control; design: scale not given: the % may be the effect or the level left
[12] = molecular target: Dual specificity mitogen-activated protein kinase kinase 4 (Homo sapiens) (UniProt P45985); test: Inhibition of human MEK4 assessed as percent of control at 2000 nM by KINOMEscan assay relative to control; design: scale not given: the % may be the effect or the level left
[13] = molecular target: Serine/threonine-protein kinase NIM1 (Homo sapiens) (UniProt Q8IY84); test: Inhibition of human NIM1 assessed as percent of control at 2000 nM by KINOMEscan assay relative to control; design: scale not given: the % may be the effect or the level left
[14] = molecular target: Serine/threonine-protein kinase PAK 4 (Homo sapiens) (UniProt O96013); test: Inhibition of human PAK4 assessed as percent of control at 2000 nM by KINOMEscan assay relative to control; design: scale not given: the % may be the effect or the level left
[15] = system: Phosphatidylinositol 4,5-bisphosphate 3-kinase catalytic subunit alpha isoform (Homo sapiens), P42336 [H1047L]; test: Inhibition of human PIK3CA H1047L mutant assessed as percent of control at 2000 nM by KINOMEscan assay relative to control; design: scale not given: the % may be the effect or the level left
[16] = molecular target: Serine/threonine-protein kinase pim-2 (Homo sapiens) (UniProt Q9P1W9); test: Inhibition of human PIM2 assessed as percent of control at 2000 nM by KINOMEscan assay relative to control; design: scale not given: the % may be the effect or the level left
[17] = molecular target: cGMP-dependent protein kinase 1 (Homo sapiens) (UniProt Q13976); test: Inhibition of human PRKG1 assessed as percent of control at 2000 nM by KINOMEscan assay relative to control; design: scale not given: the % may be the effect or the level left
[18] = molecular target: Ribosomal protein S6 kinase alpha-3 (Homo sapiens) (UniProt P51812); test: Inhibition of human C-terminal RSK2 kinase domain 2 assessed as percent of control at 2000 nM by KINOMEscan assay relative to control; design: scale not given: the % may be the effect or the level left
[19] = molecular target: Serine/threonine-protein kinase SIK2 (Homo sapiens) (UniProt Q9H0K1); test: Inhibition of human SIK2 assessed as percent of control at 2000 nM by KINOMEscan assay relative to control; design: scale not given: the % may be the effect or the level left
[20] = molecular target: Serine/threonine-protein kinase TAO3 (Homo sapiens) (UniProt Q9H2K8); test: Inhibition of human TAOK3 assessed as percent of control at 2000 nM by KINOMEscan assay relative to control; design: scale not given: the % may be the effect or the level left
[21] = molecular target: NT-3 growth factor receptor (Homo sapiens) (UniProt Q16288); test: Inhibition of human TRKC assessed as percent of control at 2000 nM by KINOMEscan assay relative to control; design: scale not given: the % may be the effect or the level left
[22] = molecular target: Wee1-like protein kinase 2 (Homo sapiens) (UniProt P0C1S8); test: Inhibition of human WEE2 assessed as percent of control at 2000 nM by KINOMEscan assay relative to control; design: scale not given: the % may be the effect or the level left
[23] = molecular target: Mitogen-activated protein kinase kinase kinase 19 (Homo sapiens) (UniProt Q56UN5); test: Inhibition of human YSK4 assessed as percent of control at 2000 nM by KINOMEscan assay relative to control; design: scale not given: the % may be the effect or the level left
[24] = system: CWR22R; test: Antitumor activity against human 22Rv1 cells expressing AR-V7 xenografted in male nude mouse assessed as suppression of tumor growth at 50 mg/kg, po administered daily for 15 days; assay type: functional, organism-based
[25] = system: Myc-CaP; test: Antitumor activity against murine castration-resistant Myc-CaP cells xenografted in male FVB mouse assessed as suppression of tumor volume; assay type: functional

Sequence of Tyrosine-protein kinase CSK (Homo sapiens) (P41240 2-450 limits assumed): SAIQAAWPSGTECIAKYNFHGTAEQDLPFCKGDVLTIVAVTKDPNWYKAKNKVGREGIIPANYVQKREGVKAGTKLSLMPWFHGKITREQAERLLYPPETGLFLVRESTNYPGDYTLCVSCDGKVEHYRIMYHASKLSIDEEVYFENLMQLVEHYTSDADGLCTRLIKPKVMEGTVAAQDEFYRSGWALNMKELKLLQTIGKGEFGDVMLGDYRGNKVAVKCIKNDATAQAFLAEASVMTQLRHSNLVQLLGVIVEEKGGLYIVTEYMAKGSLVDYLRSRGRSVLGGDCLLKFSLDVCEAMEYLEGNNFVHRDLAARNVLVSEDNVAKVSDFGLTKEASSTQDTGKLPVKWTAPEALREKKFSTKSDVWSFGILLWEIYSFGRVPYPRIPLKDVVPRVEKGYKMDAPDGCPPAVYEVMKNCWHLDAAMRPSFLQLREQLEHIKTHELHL
Sequence of Focal adhesion kinase 1 (Homo sapiens) (Q05397 2-1052 limits assumed): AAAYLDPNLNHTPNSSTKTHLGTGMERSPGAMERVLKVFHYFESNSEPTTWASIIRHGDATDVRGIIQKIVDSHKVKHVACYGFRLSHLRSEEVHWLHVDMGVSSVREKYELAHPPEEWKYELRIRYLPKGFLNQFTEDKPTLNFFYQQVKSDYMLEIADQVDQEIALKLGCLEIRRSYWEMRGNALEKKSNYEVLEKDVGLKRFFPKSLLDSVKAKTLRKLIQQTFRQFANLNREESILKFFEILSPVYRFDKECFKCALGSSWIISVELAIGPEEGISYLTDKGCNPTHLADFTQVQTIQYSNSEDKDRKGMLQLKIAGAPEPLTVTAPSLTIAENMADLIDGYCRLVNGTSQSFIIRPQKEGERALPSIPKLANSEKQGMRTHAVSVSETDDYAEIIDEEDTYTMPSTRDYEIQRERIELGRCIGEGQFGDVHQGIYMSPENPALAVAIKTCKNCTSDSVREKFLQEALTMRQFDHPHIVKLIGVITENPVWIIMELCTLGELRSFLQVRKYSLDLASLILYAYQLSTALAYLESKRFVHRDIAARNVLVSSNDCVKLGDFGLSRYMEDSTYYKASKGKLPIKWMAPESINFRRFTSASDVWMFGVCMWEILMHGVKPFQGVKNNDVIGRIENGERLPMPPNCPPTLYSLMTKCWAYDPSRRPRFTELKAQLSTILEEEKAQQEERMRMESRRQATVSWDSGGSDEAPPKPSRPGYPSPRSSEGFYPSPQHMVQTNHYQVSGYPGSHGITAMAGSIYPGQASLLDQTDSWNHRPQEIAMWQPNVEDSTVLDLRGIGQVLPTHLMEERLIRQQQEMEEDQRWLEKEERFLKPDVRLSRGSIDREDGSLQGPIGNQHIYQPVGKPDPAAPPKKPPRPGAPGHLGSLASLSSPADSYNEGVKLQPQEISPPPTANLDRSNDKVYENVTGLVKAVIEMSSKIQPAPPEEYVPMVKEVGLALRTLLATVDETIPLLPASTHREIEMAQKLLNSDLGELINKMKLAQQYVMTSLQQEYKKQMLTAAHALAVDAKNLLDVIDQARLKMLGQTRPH
Sequence of Mitogen-activated protein kinase kinase kinase 13 (Homo sapiens) (O43283 whole entry): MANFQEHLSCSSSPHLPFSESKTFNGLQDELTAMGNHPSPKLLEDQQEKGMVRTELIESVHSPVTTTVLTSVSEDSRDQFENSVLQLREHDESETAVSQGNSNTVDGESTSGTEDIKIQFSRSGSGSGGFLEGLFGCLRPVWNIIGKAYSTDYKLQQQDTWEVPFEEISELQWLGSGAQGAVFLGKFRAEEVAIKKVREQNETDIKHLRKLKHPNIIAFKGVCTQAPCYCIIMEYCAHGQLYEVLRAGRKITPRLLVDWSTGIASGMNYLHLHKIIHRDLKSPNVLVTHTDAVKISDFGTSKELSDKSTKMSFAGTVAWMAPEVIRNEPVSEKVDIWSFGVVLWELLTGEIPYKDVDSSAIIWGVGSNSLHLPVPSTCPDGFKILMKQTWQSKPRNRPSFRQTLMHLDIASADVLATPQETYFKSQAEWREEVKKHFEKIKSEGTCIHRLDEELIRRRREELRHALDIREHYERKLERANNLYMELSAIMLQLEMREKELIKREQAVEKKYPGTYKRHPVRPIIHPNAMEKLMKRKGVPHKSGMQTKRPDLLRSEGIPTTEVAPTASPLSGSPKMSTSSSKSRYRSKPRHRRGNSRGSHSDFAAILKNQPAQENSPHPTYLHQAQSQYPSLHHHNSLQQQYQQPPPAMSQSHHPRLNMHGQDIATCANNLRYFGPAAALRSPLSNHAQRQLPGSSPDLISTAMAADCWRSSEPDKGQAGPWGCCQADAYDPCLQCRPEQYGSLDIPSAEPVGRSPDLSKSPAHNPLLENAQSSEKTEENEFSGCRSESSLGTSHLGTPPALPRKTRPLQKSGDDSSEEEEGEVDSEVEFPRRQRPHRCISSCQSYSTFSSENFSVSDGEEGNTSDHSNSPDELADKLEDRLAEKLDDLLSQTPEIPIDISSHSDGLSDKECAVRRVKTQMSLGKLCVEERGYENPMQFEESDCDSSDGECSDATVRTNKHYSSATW
Sequence of Serine/threonine-protein kinase NIM1 (Homo sapiens) (Q8IY84 whole entry): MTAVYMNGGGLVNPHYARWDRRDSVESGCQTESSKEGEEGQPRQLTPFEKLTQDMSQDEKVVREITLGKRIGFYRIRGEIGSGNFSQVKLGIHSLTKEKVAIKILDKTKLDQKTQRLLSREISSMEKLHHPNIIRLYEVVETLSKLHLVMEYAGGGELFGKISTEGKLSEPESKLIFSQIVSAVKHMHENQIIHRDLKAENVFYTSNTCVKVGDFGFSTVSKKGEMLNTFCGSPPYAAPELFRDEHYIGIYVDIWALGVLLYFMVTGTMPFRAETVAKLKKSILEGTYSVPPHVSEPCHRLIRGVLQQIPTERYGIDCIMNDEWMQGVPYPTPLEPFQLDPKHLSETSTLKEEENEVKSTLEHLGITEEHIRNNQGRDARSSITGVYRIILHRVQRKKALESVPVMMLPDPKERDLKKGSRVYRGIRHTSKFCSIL
Sequence of Mitogen-activated protein kinase kinase kinase 19 (Homo sapiens) (Q56UN5 whole entry): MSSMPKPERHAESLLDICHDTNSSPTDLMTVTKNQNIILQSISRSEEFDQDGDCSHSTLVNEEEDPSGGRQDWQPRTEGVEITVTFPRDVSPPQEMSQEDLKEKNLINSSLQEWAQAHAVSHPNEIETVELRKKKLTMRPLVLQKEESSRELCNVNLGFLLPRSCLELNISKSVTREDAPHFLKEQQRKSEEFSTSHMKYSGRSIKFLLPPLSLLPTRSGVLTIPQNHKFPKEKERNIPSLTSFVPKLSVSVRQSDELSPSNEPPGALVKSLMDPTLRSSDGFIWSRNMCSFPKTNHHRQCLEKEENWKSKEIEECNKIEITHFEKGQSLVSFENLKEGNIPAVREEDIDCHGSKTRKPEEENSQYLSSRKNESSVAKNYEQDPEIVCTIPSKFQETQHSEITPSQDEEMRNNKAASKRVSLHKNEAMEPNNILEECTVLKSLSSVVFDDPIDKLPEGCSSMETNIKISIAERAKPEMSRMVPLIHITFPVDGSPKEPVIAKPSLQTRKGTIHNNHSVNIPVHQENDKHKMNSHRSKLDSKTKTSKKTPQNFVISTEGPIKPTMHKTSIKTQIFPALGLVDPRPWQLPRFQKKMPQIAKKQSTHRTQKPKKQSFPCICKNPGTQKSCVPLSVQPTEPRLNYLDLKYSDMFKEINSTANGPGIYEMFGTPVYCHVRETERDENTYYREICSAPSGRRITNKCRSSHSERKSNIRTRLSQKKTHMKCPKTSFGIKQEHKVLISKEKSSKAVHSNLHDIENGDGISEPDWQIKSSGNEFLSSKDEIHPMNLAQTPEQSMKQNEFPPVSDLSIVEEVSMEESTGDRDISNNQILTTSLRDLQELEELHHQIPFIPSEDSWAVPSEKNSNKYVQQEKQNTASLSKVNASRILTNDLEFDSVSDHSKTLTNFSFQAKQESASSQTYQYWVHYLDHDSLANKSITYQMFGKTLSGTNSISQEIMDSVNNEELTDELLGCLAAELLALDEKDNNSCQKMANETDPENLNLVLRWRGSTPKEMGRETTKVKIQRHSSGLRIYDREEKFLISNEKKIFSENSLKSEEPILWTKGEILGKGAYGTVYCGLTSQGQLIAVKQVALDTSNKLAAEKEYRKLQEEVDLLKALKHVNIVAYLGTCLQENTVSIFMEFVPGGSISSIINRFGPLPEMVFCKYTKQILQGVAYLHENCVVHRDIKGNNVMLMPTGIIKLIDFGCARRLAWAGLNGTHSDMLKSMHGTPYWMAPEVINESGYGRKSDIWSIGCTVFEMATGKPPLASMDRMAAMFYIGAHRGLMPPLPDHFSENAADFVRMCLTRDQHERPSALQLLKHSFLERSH
Sequence of cGMP-dependent protein kinase 1 (Homo sapiens) (Q13976 whole entry, the tested form may be a part): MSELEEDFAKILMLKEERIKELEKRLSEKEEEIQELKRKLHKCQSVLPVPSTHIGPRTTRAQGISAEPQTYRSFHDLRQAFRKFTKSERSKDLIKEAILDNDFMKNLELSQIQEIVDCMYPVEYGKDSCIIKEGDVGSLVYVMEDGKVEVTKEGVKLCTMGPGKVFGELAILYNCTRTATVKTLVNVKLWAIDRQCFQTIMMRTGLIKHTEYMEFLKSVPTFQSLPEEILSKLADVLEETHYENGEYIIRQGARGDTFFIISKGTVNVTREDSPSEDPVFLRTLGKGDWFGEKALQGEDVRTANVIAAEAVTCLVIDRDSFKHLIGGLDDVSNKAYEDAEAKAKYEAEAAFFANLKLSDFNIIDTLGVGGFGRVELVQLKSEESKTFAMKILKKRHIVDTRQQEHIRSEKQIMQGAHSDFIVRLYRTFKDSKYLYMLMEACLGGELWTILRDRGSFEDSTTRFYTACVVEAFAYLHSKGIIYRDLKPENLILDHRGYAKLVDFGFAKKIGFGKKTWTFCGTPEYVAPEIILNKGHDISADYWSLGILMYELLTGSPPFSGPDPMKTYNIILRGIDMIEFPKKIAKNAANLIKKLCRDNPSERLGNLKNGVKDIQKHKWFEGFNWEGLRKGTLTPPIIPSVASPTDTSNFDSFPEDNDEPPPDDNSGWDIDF

## CN(C)C(=O)c1ccc(N2CCCN(c3ccnc4sc(C(N)=O)c(N)c34)CC2)cc1
[1]
  Activity: 96% and 100%
[2]
  Activity: 94% and 100%
[3]
  Activity: 98% and 95%
[4]
  Activity: 86% and 92%
[5]
  Activity: 92% and 100%
[6]
  Activity: 78% and 100%
[7]
  Activity: 100% and 97%
[8]
  Activity: 100% and 96%
[9]
  Activity: 88% and 87%
[10]
  Activity: 100%
[11]
  Activity: 100% and 87%
[12]
  Activity: 69% and 74%
[13]
  Activity: 56% and 78%
[14]
  Activity: 87% and 100%
[15]
  Activity: 94% and 80%
[16]
  Activity: 85% and 89%
[17]
  Activity: 88% and 100%
[18]
  Activity: 94% and 92%
[19]
  Activity: 96% and 100%
[20]
  Activity: 98% and 73%
[21]
  Activity: 91% and 85%
[22]
  Activity: 97% and 88%
[23]
  Activity: 74% and 53%
[24]
  Activity: Active
[25]
  Activity: Active
